pEC50: −log10 of the molar value. Numbered stars: 1 amine (or outer) side, 2 acyl side, 3 side chain; on linkers, the order of the positions; unused ones are H or OH. Square brackets hold non-standard residues; d marks the D form. Side chains are listed from the residue outwards. Peptide text beside a SMILES is read from it. * marks the point of attachment. Adipoyl(4R-palmitoylamino) = CCCCCCCCCCCCCCCC(=O)N[C@H](CCC(=O)*)CC(=O)O; γGlu = O=C(O)[C@H](CCC(=O)[*:2])N[*:1]; Palmitoyl = CCCCCCCCCCCCCCCC(=O)*; AEEA = NCCOCCOCC(=O)O; Aib = CC(C)(N)C(=O)O
How the values were obtained:
[1] = target: T1, human GIP receptor (hGIP-R) (Homo sapiens, UniProt P48546); assay: cAMP response (HTRF) of HEK-293 cells stably expressing human GIP receptor; type: cell-based; conditions: Table 8; cAMP formation
T1 construct: expressed in transfected cells; host or cells: HEK-293
T1 sequence (P48546 22-466): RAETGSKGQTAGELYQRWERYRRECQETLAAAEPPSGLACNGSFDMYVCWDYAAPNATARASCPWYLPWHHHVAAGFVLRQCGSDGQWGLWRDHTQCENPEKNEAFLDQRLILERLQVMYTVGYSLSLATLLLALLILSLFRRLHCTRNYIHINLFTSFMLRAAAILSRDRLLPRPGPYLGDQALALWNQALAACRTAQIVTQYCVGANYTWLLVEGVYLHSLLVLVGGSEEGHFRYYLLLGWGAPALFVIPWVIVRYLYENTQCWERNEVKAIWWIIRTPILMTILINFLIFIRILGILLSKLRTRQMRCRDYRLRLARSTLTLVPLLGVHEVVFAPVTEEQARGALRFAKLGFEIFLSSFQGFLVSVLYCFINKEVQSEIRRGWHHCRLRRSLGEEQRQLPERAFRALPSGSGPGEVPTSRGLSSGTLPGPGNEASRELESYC
Method: cAMP content of cells was determined using a kit from Cisbio Corp. (cat. no. 62AM4PEJ) based on HTRF (Homogenous Time Resolved Fluorescence). For preparation, cells were split into T175 culture flasks and grown overnight to near confluency in medium (DMEM/10% FBS). Medium was then removed and cells washed with PBS lacking calcium and magnesium, followed by proteinase treatment with accutase (Sigma-Aldrich cat. no. A6964). Detached cells were washed and resuspended in assay buffer (1×HBSS; 20 mM HEPES, 0.1% BSA, 2 mM IBMX) and cellular density determined. They were then diluted to 400000 cells/ml and 25 μl-aliquots dispensed into the wells of 96-well plates. For measurement, 25 μl of test compound in assay buffer was added to the wells, followed by incubation for 30 minutes at room temperature.
Potencies of peptidic compounds at the GLP-1, glucagon and GIP receptors were determined by exposing cells expressing human glucagon receptor (hGlucagon R), human GIP receptor (hGIP-R) or human GLP-1 receptor (hGLP-1 R) to the listed compounds at increasing concentrations and measuring the formed cAMP as described in Methods.

[2] = Thioflavin T (ThT) assay for physical stability (fibrillation); type: physicochemical; conditions: 3 mg/ml, 100 mM acetate pH 4.5 with m-cresol, shaking at 37° C.
Method: Investigations were carried out to determine fibrillation tendencies under stress conditions by shaking at 37° C. within Fluoroskan Ascent FL.
For the tests in Fluoroskan Ascent FL, 200 μL sample were placed into a 96 well mictrotiter plate PS, flat bottom, Greiner Fluotrac No. 655076. Plates were sealed with Scotch Tape (Quiagen). Samples were stressed by continuous cycles of 10 s shaking at 960 rpm and 50 s rest period at 37° C. The kinetic was monitored by measuring fluorescence intensity every 20 minutes.
Peptides were diluted in a buffer system to a final concentration of 3 mg/ml. 20 μL of a 10.1 mM ThT solution in H2O were added to 2 mL of peptide solution to receive a final concentration of 100 μM ThT. For each sample eight replicates were tested.
Tht buffer system A) 100 mM Acetate pH 4.5 including m-cresol (100 mM Natriumacetat trihydrat, pH adjustment using 2N CH3COOH, 2.7 mg/mL m-cresol) Tht buffer system B) 100 mM citrate buffer pH 6.0
Lag time in hours in Thioflavin T (ThT) assay of peptide samples was determined in Tht buffer system A as described in Methods.

[3] = Chemical stability assessment (UPLC-UV, relative purity loss); type: physicochemical; conditions: 1 mg/ml, 25 mM acetate buffer pH 4.5 with m-cresol (buffer system A)
Method: Prior to the chemical stability measurement of a peptide batch, its purity was determined through UPLC/MS. For stability testing the target concentration was 1 mg pure compound/ml. Therefore solutions from solid samples were prepared in a buffer system with a concentration of 1 mg/mL compound based on the previously determined % purity:
Chemical stability buffer system A) 25 mM acetate buffer pH4.5, 3 mg/mL L-Methionine, 2.7 mg/mL m-cresol, 18 mg/mL Glycerol 85%
Peptide solutions were filtered through […] pore size and filled into aliquots under aseptic conditions. At starting point UPLC-UV was performed by injection of 2 μl of the undiluted sample.
For chemical stability testing, aliquots were stored for 28 days at Sand 40° C. After this time course the samples were centrifuged for 15 min at 2500 RCF. Then 2 μl of the undiluted supernatant were analysed with UPLC-UV.
The chemical stability was rated through the relative loss of purity calculated by the equation: [(purity at starting point)−(purity after 28 days at X° C.)]/(purity at starting point)]*100%
The purity is calculated as [(peak area peptide)/(total peak area)]*100%
Peptide samples were prepared in Chemical stability buffer system A and chemical stability was assessed as described in Methods.

[4] = Solubility assessment (UPLC-UV); type: physicochemical; conditions: acetate buffer pH 4.5, 2.7 mg/ml m-cresol (buffer system A), target 10 mg/ml
Method: Prior to the solubility measurement of a peptide batch, its purity was determined through UPLC/MS.
Therefore solutions from solid samples were prepared in a buffer systems with a concentration of 10 mg/mL compound based on the previously determined % purity:
Solubility buffer system A) Acetate Buffer pH 4.5, 100 mM sodium acetate trihydrate, 2.7 mg/ml m-Cresol
UPLC-UV was performed after 1 hour of gentle agitation from the supernatant, which was obtained after 15 min of centrifugation at 2500 RCF (relative centrifugal acceleration).
The solubility was determined by the comparison of the UV peak area of 2 μL-injection of a buffered sample diluted 1:10 with a standard curve of a reference peptide with known concentration. The different UV extinction coefficients of sample and reference peptide were calculated based on the different amino acid sequences and considered in the concentration calculation.
Peptide samples were prepared in solubility buffer system A and solubility was assessed as described in Methods.

[5] = Dynamic light scattering (DLS), hydrodynamic radius as surrogate for interaction parameter kD; type: physicochemical
Method: For every peptide solution, the hydrodynamic radius Rh and the diffusion constant D (related via the Stokes-Einstein equation) were determined as an average over triplicates. Both parameters were determined at different concentrations (e.g., Rh1 and D1: 1 mg/ml and Rh5 and D5: 5 mg/ml) in the same buffer system. The difference of these parameters between low and high peptide concentration is a surrogate for the DLS interaction parameter kD. Rh5<Rh1 or D5>D1 correspond to kD>0 and therefore to repulsive inter-particle interactions that result in improved physical (or colloidal) stability.
DLS buffer system A) 25 mM acetate buffer pH4.5, 3 mg/mL L-Methionine, 2.7 mg/mL m-cresol, 18 mg/mL Glycerol 85%
DLS Method C: DLS measurements were performed on a DynaPro Plate Reader II (Wyatt Technology, Santa Barbara, Calif., US) and using one of the following black, low volume, and non-treated plates: polystyrene 384 assay plate with clear bottom (Corning, N.Y., US), polystyrene 96 assay plate with clear bottom (Corning, N.Y., US), cyclo olefin polymer (COP) 384 assay plate with clear bottom (Aurora, Mont., US), or polystyrene 384 assay plate with clear bottom (Greiner Bio-One, Germany). The data were processed with the Dynamics software provided by Wyatt Technology. Parameters of the particle size distribution were determined with non-negatively constrained least squares (NNLS) methods using DynaLS algorithms. Measurements were taken at 25° C. with an 830 nm laser light source at an angle of 158°.
The hydrodynamic radius radius Rh of peptide samples was determined at different peptide concentrations (1 mg/ml and 5 mg/ml) in DLS buffer system A using DLS method C as described in Methods as surrogate for the DLS interaction parameter kD.

Structure (SMILES)	pEC50 [1]	Lag time before increase [2] [h]	Chemical stability [relative purity loss 28 days 40° C.] (%) at pH 4.5 [3] [%]	solubility at 1 h [4] [mg/mL]	Delta Rh [nm] = Rh5 − Rh1 ([5]; DLS buffer system A pH 4.5) [nm]	Rh1 [nm] c= 1 mg/ml ([5]; hydrodynamic radius, 1 mg/ml, DLS buffer system A pH 4.5, DLS method C, 25° C.) [nm]	Rh5 [nm] c = 5 mg/ml ([5]; hydrodynamic radius, 5 mg/ml, DLS buffer system A pH 4.5, DLS method C, 25° C.) [nm]
CCCCCCCCCCCCCCCC(=O)NCCOCCOCC(=O)N[C@@H](CCC(=O)N[C@@H](CCC(=O)NCCCC[C@H](NC(=O)[C@H](CC(C)C)NC(=O)[C@H](CCCCN)NC(=O)[C@H](CO)NC(=O)[C@H](CC(C)C)NC(=O)[C@H](CC(=O)O)NC(=O)[C@H](CO)NC(=O)[C@@H](NC(=O)[C@H](Cc1ccccc1)NC(=O)[C@@H](NC(=O)CNC(=O)[C@H](CCC(N)=O)NC(=O)C(C)(C)NC(=O)[C@@H](N)Cc1c[nH]cn1)[C@@H](C)O)[C@@H](C)O)C(=O)N[C@@H](CCC(=O)O)C(=O)N[C@@H](CCC(=O)O)C(=O)N[C@@H](CCC(N)=O)C(=O)N[C@@H](CCCNC(=N)N)C(=O)N[C@@H](CCC(N)=O)C(=O)NC(C)(C)C(=O)N[C@@H](CCC(=O)O)C(=O)N[C@@H](Cc1ccccc1)C(=O)N[C@H](C(=O)N[C@@H](CCC(=O)O)C(=O)N[C@@H](Cc1c[nH]c2ccccc12)C(=O)N[C@@H](CC(C)C)C(=O)N[C@@H](CCCCN)C(=O)N[C@@H](C)C(=O)NCC(=O)NCC(=O)N[C@@H](Cc1c[nH]cn1)C(=O)N1CCC[C@H]1C(=O)N[C@@H](CO)C(=O)NC(C)(C)C(=O)N[C@@H](CCCCN)C(=O)N1CCC[C@H]1C(=O)N1CCC[C@H]1C(=O)N1CCC[C@H]1C(=O)N[C@@H](CCCCN)C(N)=O)[C@@H](C)CC)C(=O)O)C(=O)O [SEQ ID NO: 18, H-Aib-Q-G-T-F-T-S-D-L-S-K-L-K[gGlu-gGlu-AEEA-Palm]-E-E-Q-R-Q-Aib-E-F-I-E-W-L-K-A-G-G-H-P-S-Aib-K-P-P-P-K-NH2] (H-H[Aib]QGTFTSDLSKLK([γGlu-γGlu-AEEA-Palmitoyl])EEQRQ[Aib]EFIEWLKAGGHPS[Aib]KPPPK-NH2)	11.25	>45					
CCCCCCCCCCCCCCCC(=O)N[C@H](CCC(=O)NCCOCCOCC(=O)N[C@@H](CCC(=O)NCCCC[C@H](NC(=O)[C@H](CC(C)C)NC(=O)[C@H](CCCCN)NC(=O)[C@H](CO)NC(=O)[C@H](CC(C)C)NC(=O)[C@H](CC(=O)O)NC(=O)[C@H](CO)NC(=O)[C@@H](NC(=O)[C@H](Cc1ccccc1)NC(=O)[C@@H](NC(=O)CNC(=O)[C@H](CCC(N)=O)NC(=O)C(C)(C)NC(=O)[C@@H](N)Cc1c[nH]cn1)[C@@H](C)O)[C@@H](C)O)C(=O)N[C@@H](CCC(=O)O)C(=O)N[C@@H](CCC(=O)O)C(=O)N[C@@H](CCC(N)=O)C(=O)N[C@@H](CCCNC(=N)N)C(=O)N[C@@H](CCC(N)=O)C(=O)NC(C)(C)C(=O)N[C@@H](CCC(=O)O)C(=O)N[C@@H](Cc1ccccc1)C(=O)N[C@H](C(=O)N[C@@H](CCC(=O)O)C(=O)N[C@@H](Cc1c[nH]c2ccccc12)C(=O)N[C@@H](CC(C)C)C(=O)N[C@@H](CCCCN)C(=O)N[C@@H](C)C(=O)N[C@H](C)C(=O)NCC(=O)N[C@@H](Cc1c[nH]cn1)C(=O)N1CCC[C@H]1C(=O)N[C@@H](CO)C(=O)NC(C)(C)C(=O)N[C@@H](CCCCN)C(=O)N1CCC[C@H]1C(=O)N1CCC[C@H]1C(=O)N1CCC[C@H]1C(=O)N[C@@H](CCCCN)C(N)=O)[C@@H](C)CC)C(=O)O)CC(=O)O [SEQ ID NO: 23, H-Aib-Q-G-T-F-T-S-D-L-S-K-L-K[gGlu-AEEA-gAAA-Palm]-E-E-Q-R-Q-Aib-E-F-I-E-W-L-K-A-dAla-G-H-P-S-Aib-K-P-P-P-K-NH2] (H-H[Aib]QGTFTSDLSKLK([γGlu-AEEA-Adipoyl(4R-palmitoylamino)])EEQRQ[Aib]EFIEWLKA[dA]GHPS[Aib]KPPPK-NH2)		>45	9.6	> 10.4	−0.1	2.8	2.7

Reference: patent publication US10519211B2, “Compounds as peptidic GLP1/glucagon/GIP receptor agonists” (SANOFI, priority 2016, dated 2019)
